These results are taken from patent US9598401B2, “Substituted heteroaryl compounds and methods of use thereof” (Sunshine Lake Pharma Co., Ltd., priority 2013, dated 2017).

Like-named read-outs stand apart in the source and are kept apart here.

The target in assay [1] is 5-HT1A receptor (Homo sapiens (Human), UniProt P08908). Nature of the assay: Affinity for human 5-HT1A receptor ([3H]8-OH-DPAT binding, HEK-293 cell homogenates).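 Note: Filter-retained radioactivity counted by scintillation, non-specific binding defined with 10 µM 8-OH-DPAT, Ki derived from percent inhibition of specific radioligand binding versus control.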
Method: The non-specific binding value was determined by incubating the same mixture in the presence of 10 μM 8-OH-DPAT, which was used as the standard reference compound and tested in each experiment at several concentrations to obtain a competition curve.
Following the incubation, the samples were filtered rapidly under vacuum through glass fiber filter (GF/B, Packard) presoaked with 0.3% PEI and rinsed several times with ice-cold 50 mM Tris-HCl using a 96-sample cell harvester (Unifilter, Packard). The filters were dried and the retained radioactivity was measured in a scintillation counter (Topcount, Packard) using a scintillation cocktail (Microscint 0, Packard). The experimental results were expressed as a percent inhibition of the control radioligand specific binding, and Ki was the inhibition constant.
Assay [2] addresses serotonin transporter (Rattus norvegicus (Rat), UniProt P31652). The assay can be described thus: Inhibitory effect on [3H]5-HT uptake in rat synaptosome. Format: biochemical. Particulars: rat brain synaptosomes, 37° C., 15 minutes, 0.1 μCi [3H]5-HT. The method, then: The synaptosomes (150 μg) prepared from the rat brain were incubated at 37° C. for 15 minutes with 0.1 μCi [^3H]5-HT in the absence or presence of the test compound or the reference compound in a buffer solution containing 106.2 mM NaCl, 4.5 mM KCl, 2.25 mM MgSO4, 1.08 mM NaH2PO4, 22.5 mM NaHCO3, 9.9 mM glucose, 9 μM EGTA and 45 μM ascorbic acid (pH 7.4).
Inhibition of serotonin transporter in rat synaptosome was measured by the concentrations of [^3H]5-HT.

The mark [3] stands for this setting: read-out: Ki, binding affinity for 5-HT1A receptor, 0.3 nM [3H]8-OH-DPAT, human HEK-293 cell homogenates, 22° C., 60 minutes.

Chain of serotonin transporter (P31652 whole entry): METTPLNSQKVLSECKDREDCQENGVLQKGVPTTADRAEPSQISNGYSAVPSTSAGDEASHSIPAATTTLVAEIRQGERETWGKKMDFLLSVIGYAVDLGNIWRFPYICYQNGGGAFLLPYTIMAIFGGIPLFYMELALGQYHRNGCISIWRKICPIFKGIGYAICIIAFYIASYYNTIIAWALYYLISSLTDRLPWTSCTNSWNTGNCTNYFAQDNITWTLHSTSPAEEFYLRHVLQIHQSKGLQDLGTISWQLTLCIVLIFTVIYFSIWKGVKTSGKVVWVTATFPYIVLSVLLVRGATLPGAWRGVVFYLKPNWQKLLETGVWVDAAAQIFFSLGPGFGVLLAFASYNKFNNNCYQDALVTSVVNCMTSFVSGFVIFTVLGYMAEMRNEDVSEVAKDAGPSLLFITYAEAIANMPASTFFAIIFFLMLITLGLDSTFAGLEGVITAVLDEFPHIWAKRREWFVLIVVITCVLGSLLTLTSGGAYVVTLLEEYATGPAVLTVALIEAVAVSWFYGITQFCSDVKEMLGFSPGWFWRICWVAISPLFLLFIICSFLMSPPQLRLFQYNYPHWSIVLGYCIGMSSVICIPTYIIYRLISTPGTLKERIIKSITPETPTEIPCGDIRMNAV
Chain of 5-HT1A receptor (P08908 whole entry): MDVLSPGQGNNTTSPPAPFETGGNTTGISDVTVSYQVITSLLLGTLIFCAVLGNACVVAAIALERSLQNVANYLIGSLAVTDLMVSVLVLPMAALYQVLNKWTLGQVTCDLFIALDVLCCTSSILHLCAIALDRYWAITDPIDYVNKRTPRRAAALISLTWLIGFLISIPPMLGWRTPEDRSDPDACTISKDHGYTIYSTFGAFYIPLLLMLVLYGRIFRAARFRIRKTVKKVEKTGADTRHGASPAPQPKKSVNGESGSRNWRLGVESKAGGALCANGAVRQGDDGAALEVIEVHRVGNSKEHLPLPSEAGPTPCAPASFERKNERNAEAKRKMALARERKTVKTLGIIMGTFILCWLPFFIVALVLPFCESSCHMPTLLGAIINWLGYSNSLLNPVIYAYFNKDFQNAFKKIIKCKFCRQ

As a reminder, the Ki is the equilibrium dissociation constant of an inhibitor or competing ligand from its target. For `COc1cc(OC)nc(N2CCN(CCCCc3c[nH]c4ccccc34)CC2)n1` [Example 1, 3-(4-(4-(4,6-Dimethoxypyrimidin-2-yl)piperazin-1-yl)butyl)-1H-indole], the Ki in assay [1] (setting [3]) came to 3.3 nM.

`COc1ccc2[nH]cc(CCCCN3CCN(c4nc(OC)cc(OC)n4)CC3)c2c1` [Example 2, 3-(4-(4-(4,6-Dimethoxypyrimidin-2-yl)piperazin-1-yl)butyl)-5-methoxy-1H-indole]: the Ki in assay [1] (setting [3]) came out at 1.4 nM.

Consider `COc1cc(OC)nc(N2CCN(CCCCc3c[nH]c4ccc(Cl)cc34)CC2)n1` [Example 3, 5-Chloro-3-(4-(4-(4,6-dimethoxypyrimidin-2-yl)piperazin-1-yl)butyl)-1H-indole], for which the Ki in assay [1] (setting [3]) is 1.1 nM.

In general, IC50 refers to the concentration at which inhibition is half-maximal. The low end stands for higher potency, the high end for lower potency. In the case of `COc1cc(OC)nc(N2CCN(CCCCc3c[nH]c4ccc(C#N)cc34)CC2)n1` [Example 5, 3-(4-(4-(4,6-Dimethoxypyrimidin-2-yl)piperazin-1-yl)butyl)-1H-indole-5-carbonitrile], the IC50 in assay [2] was determined as 11 nM. The Ki in assay [1] (setting [3]) came out at 2.3 nM.

Take `COc1cc(OC)nc(N2CCN(CCCc3c[nH]c4ccccc34)CC2)n1` [Example 6, 3-(3-(4-(4,6-Dimethoxypyrimidin-2-yl)piperazin-1-yl)propyl)-1H-indole]: inhibition in assay [2] was half-maximal at 24 nM (IC50). Besides, the Ki in assay [1] (setting [3]) was 4.8 nM.

As for `COc1ccc2[nH]cc(CCCN3CCN(c4nc(OC)cc(OC)n4)CC3)c2c1` [Example 7, 3-(3-(4-(4,6-Dimethoxypyrimidin-2-yl)piperazin-1-yl)propyl)-5-methoxy-1H-indole], in assay [1] (setting [3]), the Ki came to 0.19 nM.

Compound `COc1cc(OC)nc(N2CCN(CCCc3c[nH]c4ccc(Cl)cc34)CC2)n1` [Example 8, 5-Chloro-3-(3-(4-(4,6-dimethoxypyrimidin-2-yl)piperazin-1-yl)propyl)-1H-indole] gave an IC50 in assay [2] of 81 nM. Besides, the Ki in assay [1] (setting [3]) was found to be 2 nM.

`COc1cc(OC)nc(N2CCN(CCCc3c[nH]c4ccc(F)cc34)CC2)n1` [Example 9, 3-(3-(4-(4,6-Dimethoxypyrimidin-2-yl)piperazin-1-yl)propyl)-5-fluoro-1H-indole] had an IC50 in assay [2] of 4.4 nM. Besides, in assay [1] (setting [3]), the Ki came to 3.4 nM.

Compound `Cc1cc(C)nc(N2CCN(CCCCc3c[nH]c4ccccc34)CC2)n1` [Example 11, 3-(4-(4-(4,6-Dimethylpyrimidin-2-yl)piperazin-1-yl)butyl)-1H-indole] displayed an IC50 in assay [2] of 82 nM. Besides, in assay [1] (setting [3]), the Ki stood at 1.1 nM.

`COc1ccc2[nH]cc(CCCCN3CCN(c4nc(C)cc(C)n4)CC3)c2c1` [Example 12, 3-(4-(4-(4,6-Dimethylpyrimidin-2-yl)piperazin-1-yl)butyl)-5-methoxy-1H-indole]: the Ki in assay [1] (setting [3]) came out at 1.1 nM.

For the compound `Cc1cc(C)nc(N2CCN(CCCCc3c[nH]c4ccc(Cl)cc34)CC2)n1` [Example 13, 5-Chloro-3-(4-(4-(4,6-dimethylpyrimidin-2-yl)piperazin-1-yl)butyl)-1H-indole], in assay [1] (setting [3]), the Ki stood at 1.8 nM.

As to `Cc1cc(C)nc(N2CCN(CCCCc3c[nH]c4ccc(F)cc34)CC2)n1` [Example 14, 3-(4-(4-(4,6-Dimethylpyrimidin-2-yl)piperazin-1-yl)butyl)-5-fluoro-1H-indole], the IC50 in assay [2] was 12 nM. Moreover, the Ki in assay [1] (setting [3]) is 1.7 nM.

Compound `Cc1cc(C)nc(N2CCN(CCCCc3c[nH]c4ccc(C#N)cc34)CC2)n1` [Example 15, 3-(4-(4-(4,6-Dimethylpyrimidin-2-yl)piperazin-1-yl)butyl)-1H-indole-5-carbonitrile] gave an IC50 in assay [2] of 6.9 nM. The Ki in assay [1] (setting [3]) is 2.9 nM.

With `COc1ccc2[nH]cc(CCCN3CCN(c4nc(C)cc(C)n4)CC3)c2c1` [Example 17, 3-(3-(4-(4,6-Dimethylpyrimidin-2-yl)piperazin-1-yl)propyl)-5-methoxy-1H-indole], the Ki in assay [1] (setting [3]) worked out at 0.29 nM.

The compound `Cc1cc(C)nc(N2CCN(CCCc3c[nH]c4ccc(Cl)cc34)CC2)n1` [Example 18, 5-Chloro-3-(3-(4-(4,6-dimethylpyrimidin-2-yl)piperazin-1-yl)propyl)-1H-indole] gave an IC50 in assay [2] of 31 nM. Besides, in assay [1] (setting [3]), the Ki stood at 0.71 nM.

As for `Cc1cc(C)nc(N2CCN(CCCc3c[nH]c4ccc(F)cc34)CC2)n1` [Example 19, 3-(3-(4-(4,6-Dimethylpyrimidin-2-yl)piperazin-1-yl)propyl)-5-fluoro-1H-indole], the half-inhibitory concentration (IC50) in assay [2] stood at 7.9 nM. Moreover, the Ki in assay [1] (setting [3]) was 1.4 nM.

`Cc1cc(C)nc(N2CCN(CCCc3c[nH]c4ccc(C#N)cc34)CC2)n1` [Example 20, 3-(3-(4-(4,6-Dimethylpyrimidin-2-yl)piperazin-1-yl)propyl)-1H-indole-5-carbonitrile] gave an IC50 in assay [2] of 2 nM. For the same compound, in assay [1] (setting [3]), the Ki was 1.1 nM.

`COc1cc(C)nc(N2CCN(CCCCc3c[nH]c4ccc(C#N)cc34)CC2)n1` [Example 21, 3-(4-(4-(4-Methoxy-6-methylpyrimidin-2-yl)piperazin-1-yl)butyl)-1H-indole-5-carbonitrile] returned an IC50 in assay [2] of 2.6 nM. Also, the Ki in assay [1] (setting [3]) worked out at 0.65 nM.

As for `COc1cc(C)nc(N2CCN(CCCc3c[nH]c4ccc(C#N)cc34)CC2)n1` [Example 22, 3-(3-(4-(4-Methoxy-6-methylpyrimidin-2-yl)piperazin-1-yl)propyl)-1H-indole-5-carbonitrile], 2.7 nM corresponded to half-maximal inhibition in assay [2] (IC50). In assay [1], this compound registered a Ki of 1.5 nM.

`N#Cc1ccnc(N2CCN(CCCCc3c[nH]c4ccc(F)cc34)CC2)n1` [Example 23, 2-(4-(4-(5-Fluoro-1H-indol-3-yl)butyl)piperazin-1-yl)pyrimidine-4-carbonitrile]: the IC50 in assay [2] worked out at 6.1 nM. The Ki in assay [1] (setting [3]) was 18 nM.

In the case of `N#Cc1ccc2[nH]cc(CCCCN3CCN(c4nccc(C#N)n4)CC3)c2c1` [Example 24, 3-(4-(4-(4-Cyanopyrimidin-2-yl)piperazin-1-yl)butyl)-1H-indole-5-carbonitrile], in assay [2], the IC50 turned out to be 1.9 nM. In assay [1] (setting [3]), the Ki was determined as 6.2 nM.

On to `N#Cc1ccnc(N2CCN(CCCc3c[nH]c4ccc(F)cc34)CC2)n1` [Example 25, 2-(4-(3-(5-Fluoro-1H-indol-3-yl)propyl)piperazin-1-yl)pyrimidine-4-carbonitrile], for which the IC50 in assay [2] worked out at 4.5 nM. The Ki in assay [1] (setting [3]) worked out at 4 nM.

In the case of `Fc1ccc2[nH]cc(CCCCN3CCN(c4nccc(C(F)(F)F)n4)CC3)c2c1` [Example 31, 5-Fluoro-3-(4-(4-(4-(trifluoromethyl)pyrimidin-2-yl)piperazin-1-yl)butyl)-1H-indole], the IC50 in assay [2] came out at 16 nM. In addition, the Ki in assay [1] (setting [3]) was found to be 2 nM.

Turning to `N#Cc1ccc2[nH]cc(CCCCN3CCN(c4ncc(F)cn4)CC3)c2c1` [Example 35, 3-(4-(4-(5-Fluoropyrimidin-2-yl)piperazin-1-yl)butyl)-1H-indole-5-carbonitrile], the IC50 in assay [2] came to 4.7 nM.

In assay [2], `N#Cc1ccc2[nH]cc(CCCN3CCN(c4ncc(F)cn4)CC3)c2c1` [Example 36, 3-(3-(4-(5-Fluoropyrimidin-2-yl)piperazin-1-yl)propyl)-1H-indole-5-carbonitrile] gave an IC50 of 8.2 nM.

`CC1CN(c2nccc(C(N)=O)n2)CCN1CCCc1c[nH]c2ccc(C#N)cc12` (stereo not shown) [Example 49, 2-(4-(3-(5-Cyano-1H-indol-3-yl)propyl)-3-methylpiperazin-1-yl)pyrimidine-4-carboxamide] displayed an IC50 in assay [2] of 0.28 nM.

As for `CC1CN(c2nccc(C(N)=O)n2)CCN1CCCCc1c[nH]c2ccc(C#N)cc12` (stereo not shown) [Example 50, 2-(4-(4-(5-Cyano-1H-indol-3-yl)butyl)-3-methylpiperazin-1-yl)pyrimidine-4-carboxamide], in assay [2], the IC50 was found to be 0.36 nM.
